# Reference: patent EP0869784B1, “INHIBITION OF FATTY ACID SYNTHASE AS A MEANS TO REDUCE ADIPOCYTE MASS” (THE JOHNS HOPKINS UNIVERSITY, priority 1995, dated 1997)
# Experiments:
# [1] = C-75-induced weight loss in nude mice inoculated with OVCAR-3 cells (Examples 8 and 9); type: in vivo
# Procedure: (§1) 20 nude mice (Harland) mice were inoculated on Day 0 with 0.1 ml packed OVCAR-3 cells. 10 mice received transisomer of C-75 (20 mg/kg) in 100 ul RPMI on days 1, 3, and 5. 10 mice received 100 ul of RPMI i.p. alone on days 1, 3, and 5. Animals were weighed on days indicated on Figure 6. Animals were sacrificed when 30% increase in body weight occurred from tumor growth.
# (§2) This indicates a dose response to the anti-tumor effect of C-75.
# [2] = C-75-induced weight loss in OVCAR-3 xenograft mice, pilot study (Example 6); type: in vivo; details: 60 mg/kg on days 1, 3, and 5
# Procedure: C-75 was tested in vivo in a pilot study against the OVCAR-3 xenograft model of Example 4. Ten mice were inoculated intraperitoneally with 10^7 OVCAR-3 cells. The mice were treated on days 1, 3, and 5 with either DMSO or 60 mg/kg C-75. Results are plotted in Figure 4. C-75 treated mice experienced a 20% reduction in weight loss by day eight. Animals regained their original weight by day 15, increased their weight to nearly 110% of original body weight by day 24, and achieved original body weight by day 34.
# FAS = FAS (Homo sapiens, UniProt P49327); experiment: FAS activity in hypotonic lysate of OVCAR-3 ascites cells (malonyl-CoA dependent oxidation of NADPH at 340 nm); type: biochemical
# FAS, sequence (P49327 whole entry): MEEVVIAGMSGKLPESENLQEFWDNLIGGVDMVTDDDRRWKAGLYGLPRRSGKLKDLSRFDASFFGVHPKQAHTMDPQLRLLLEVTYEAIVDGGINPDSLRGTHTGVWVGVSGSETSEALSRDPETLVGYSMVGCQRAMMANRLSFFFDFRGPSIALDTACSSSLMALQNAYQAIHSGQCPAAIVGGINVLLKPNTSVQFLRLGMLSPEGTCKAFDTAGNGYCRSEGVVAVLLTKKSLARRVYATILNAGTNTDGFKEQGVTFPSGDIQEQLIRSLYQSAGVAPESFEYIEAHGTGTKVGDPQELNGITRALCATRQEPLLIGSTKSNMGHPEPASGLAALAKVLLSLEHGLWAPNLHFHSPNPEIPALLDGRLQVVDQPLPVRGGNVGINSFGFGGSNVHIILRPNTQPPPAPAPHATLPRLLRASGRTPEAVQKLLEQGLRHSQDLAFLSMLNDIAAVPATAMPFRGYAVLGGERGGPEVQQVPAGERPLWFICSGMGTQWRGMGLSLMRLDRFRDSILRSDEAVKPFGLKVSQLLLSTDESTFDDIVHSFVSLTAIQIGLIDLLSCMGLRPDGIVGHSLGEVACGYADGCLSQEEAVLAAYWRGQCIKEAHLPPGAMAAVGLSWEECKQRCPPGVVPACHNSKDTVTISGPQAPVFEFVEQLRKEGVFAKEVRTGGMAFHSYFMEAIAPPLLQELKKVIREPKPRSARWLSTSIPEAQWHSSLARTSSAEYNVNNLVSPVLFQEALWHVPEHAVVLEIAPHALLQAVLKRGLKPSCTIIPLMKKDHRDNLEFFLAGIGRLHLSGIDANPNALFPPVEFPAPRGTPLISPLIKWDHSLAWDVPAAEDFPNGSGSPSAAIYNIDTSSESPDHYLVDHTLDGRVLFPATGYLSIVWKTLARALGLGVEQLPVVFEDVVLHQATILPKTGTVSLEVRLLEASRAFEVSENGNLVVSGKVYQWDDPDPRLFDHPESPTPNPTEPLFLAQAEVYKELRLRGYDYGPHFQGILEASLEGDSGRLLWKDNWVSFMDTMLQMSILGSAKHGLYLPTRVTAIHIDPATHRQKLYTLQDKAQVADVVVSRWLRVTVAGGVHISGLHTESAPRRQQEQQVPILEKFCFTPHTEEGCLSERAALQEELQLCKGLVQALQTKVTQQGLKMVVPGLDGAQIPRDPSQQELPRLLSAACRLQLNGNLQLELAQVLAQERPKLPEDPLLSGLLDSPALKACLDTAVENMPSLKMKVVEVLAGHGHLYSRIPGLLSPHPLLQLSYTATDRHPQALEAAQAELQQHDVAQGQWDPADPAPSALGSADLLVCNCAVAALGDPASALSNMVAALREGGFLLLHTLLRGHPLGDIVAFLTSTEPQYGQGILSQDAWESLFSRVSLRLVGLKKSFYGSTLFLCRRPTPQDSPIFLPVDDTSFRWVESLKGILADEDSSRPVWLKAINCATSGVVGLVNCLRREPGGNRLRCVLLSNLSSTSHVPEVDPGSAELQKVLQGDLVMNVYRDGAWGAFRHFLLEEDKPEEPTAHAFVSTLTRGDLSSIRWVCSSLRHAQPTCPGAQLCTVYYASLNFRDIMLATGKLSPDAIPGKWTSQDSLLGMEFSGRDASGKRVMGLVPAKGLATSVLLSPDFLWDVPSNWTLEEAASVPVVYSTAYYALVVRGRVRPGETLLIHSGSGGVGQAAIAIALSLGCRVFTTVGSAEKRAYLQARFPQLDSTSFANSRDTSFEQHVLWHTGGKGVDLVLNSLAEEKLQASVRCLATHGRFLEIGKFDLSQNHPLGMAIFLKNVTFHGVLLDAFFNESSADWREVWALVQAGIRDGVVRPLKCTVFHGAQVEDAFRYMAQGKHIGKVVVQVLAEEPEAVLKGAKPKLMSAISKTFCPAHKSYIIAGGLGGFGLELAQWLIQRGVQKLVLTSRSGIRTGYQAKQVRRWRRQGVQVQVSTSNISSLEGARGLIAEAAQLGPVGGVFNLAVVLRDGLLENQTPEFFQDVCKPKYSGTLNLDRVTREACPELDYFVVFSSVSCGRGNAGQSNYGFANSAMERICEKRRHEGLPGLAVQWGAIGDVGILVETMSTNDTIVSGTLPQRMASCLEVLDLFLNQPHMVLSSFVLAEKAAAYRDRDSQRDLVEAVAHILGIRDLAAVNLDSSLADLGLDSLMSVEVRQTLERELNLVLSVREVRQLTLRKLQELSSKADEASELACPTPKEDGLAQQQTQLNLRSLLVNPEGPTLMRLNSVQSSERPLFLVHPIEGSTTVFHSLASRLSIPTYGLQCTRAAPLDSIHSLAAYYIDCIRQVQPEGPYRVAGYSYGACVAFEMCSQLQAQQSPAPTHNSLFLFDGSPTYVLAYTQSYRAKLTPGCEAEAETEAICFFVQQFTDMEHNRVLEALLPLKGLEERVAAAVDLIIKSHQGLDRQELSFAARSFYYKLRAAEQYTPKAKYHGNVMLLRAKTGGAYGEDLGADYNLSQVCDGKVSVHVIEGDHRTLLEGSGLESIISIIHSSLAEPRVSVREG
# Text: Compounds which inhibit FAS can be identified by testing the ability of a compound to inhibit fatty acid synthase activity using purified enzyme. Fatty acid synthase activity can be measured spectrophotometrically based on the oxidation of NADPH, or radioactively by measuring the incorporation of radiolabeled acetyl- or malonyl-CoA. (Dils, et al, Methods Enzymol, 35:74-83). FAS inhibitors are exemplified in U.S. patent application 08/188,425 and International patent publication WO 94/02108, both of which are incorporated herein by reference.
# OVCAR-3 cells = experiment: Survival of nude mice inoculated with OVCAR-3 cells (Examples 8 and 9); type: in vivo
# Procedure: as §1, §2
# [3] = tested on: HL60 human promyelocytic leukemia cells; experiment: HL60 viable cell count with or without palmitate (fatty acid rescue); type: cell-based; details: 2.5 ug/ml; palmitate 80 micromolar; viable cells by trypan blue exclusion, Figure 5
# Procedure: Suitable FAS inhibitors may be identified by a simple test exemplified in Example 7, and in U.S. patent application 08/188,425. Generally, this test uses a tumor cell line in which an FAS inhibitor, typically cerulenin, is cytotoxic. Such cell lines include SKBR-3, ZR-75-1, and preferably HL60. Suitable FAS inhibitors will inhibit growth of such cell lines, but the cells are rescued by exogenous supply of the product of the FAS enzyme (fatty acid). When cell growth is measured in the presence and absence of exogenous fatty acid (e.g., palmitate or oleate), inhibition by specific FAS inhibitors is relieved by the fatty acid.
# 200,000 HL60 cells were plated in 24-well plates in 1 ml fatty acid free medium with or without palmitate (80 micromolar, complexed to fatty acid free albumin 0.2:1). Cells were treated with 2.5 ug/ml of C-75. Cells were incubated in 5% CO2 at 37°C and viable cells were counted with trypan blue exclusion at 24, […], 72, and 96 hours. Results are plotted in Figure 5; each time point was performed in triplicate, error bars are the standard deviation. […] Note that palmitate alone causes some suppression of HL60 proliferation.
# [4] = tested on: HL60 human promyelocytic leukemia cells; experiment: [U14C]-acetate incorporation by HL60 cells; type: cell-based; details: 10 µg/ml, time dependent, Figure 3
# Procedure: (§3) HL60 cells were labeled with [U^14C]-acetate in the presence of 10 µg/ml C-75; cells were incubated in 5% CO2 at 37°C. Results are plotted in Figure 3; each time point was performed in triplicate, error bars are the standard deviation.
# [5] = tested on: hepatic fatty acid synthesis; experiment: In vivo metabolic labeling with [U-3H]-acetate, liver fatty acid synthesis; design: species or system mice
# Procedure: (§4) Fatty acid synthesis was measured using metabolic labeling in vivo with [U-^3H]-acetate as described in Pizer, et al., 1996, Cancer Res., 56:1189-1193.
# Thus, the reversible cerulenin-induced weight loss may be the result of fatty acid synthesis inhibition as well as decreased appetite in the mice.
# as §3
# [6] = Cerulenin-induced weight loss in nude mice with OVCAR-3 xenografts (Example 3); type: in vivo, Athymic mice; details: 80 mg/kg i.p. for 1 week
# Procedure: Cerulenin was administered as described in Example 2 above to mice which received 10^7 OVCAR-3 human ovarian cancer cells. Athymic mice received 0.1 ml of packed NIH-OVCAR-3 cells (approximately […]) intraperitoneally on treatment day 0. Beginning on day 1, treated mice received 80 mg/kg cerulenin i.p. in 25% DMSO/saline for 1 week, while untreated mice received vehicle alone. […] Weight loss constitutes the major toxicity observed during fatty acid synthesis inhibition therapy with cerlenin; the mice regained inception body mass within 10 days following treatment.
# [7] = tested on: OVCAR-3 ascites tumor fatty acid synthesis; experiment: In vivo metabolic labeling with [U-3H]-acetate, tumor fatty acid synthesis; design: species or system mice
# Procedure: as §4
# [8] = Half life of the drug in ascites; design: species or system mice; details: mouse, in vivo, ip
# [9] = Cerulenin-induced weight loss in athymic nude mice (Example 2), with necropsy from a parallel experiment; type: in vivo
# Procedure: Athymic mice received 60 mg/kg cerulenin i.p. in 25% DMSO/saline or vehicle alone each day for 1 week. The animal weights were recorded every two days up to day 15. Average animal weight for both groups of mice is plotted against treatment day in Figure 1. Error bars represent standard error of the mean. […] In addition there was a 28% reduction of feces mass in the cerulenin-treated group consistent with deceased food intake.
# [10] = 60 mg/kg i.p. each day for 1 week
compound,measurement,setting,value
"C=C1C(=O)O[C@@H](CCCCCCCC)[C@@H]1C(=O)O (relative stereo) [Example C-75, trans-Tetrahydro-3-methylene-2-oxo-5-n-octyl-4-furancarboxylic acid]",weight loss in mice,"[1]; 20 mg/kg on days 1, 3, and 5, Figure 6",causes weight loss
same,average maximum weight loss,"[1]; only one dose, on day 3",about 3 grams
same,day by which original body weight was achieved again after the increase,[2],≤ 34 days
same,day by which original weight was regained,[2],≤ 15 days
same,weight relative to original body weight,[2]; by day 24,~110%
same,body weight loss,[2]; by day eight,20%
same,reduction of FAS activity compared to control lysate,"FAS; 50 µg/ml, 37 °C, 180 min",3 fold
same,FAS activity,"FAS; 50 µg/ml, 37 °C, 180 min, control 5.6",1.8 nM NADPH oxidized/min
same,effect of incubation at 4°,FAS; incubation at 4°,abolishes the inhibitory effect
same,survival of the xenograft,"OVCAR-3 cells; 20 mg/kg on days 1, 3, and 5, p=0.001 Wilcoxon and Mantel",increased survival
same,survival,"OVCAR-3 cells; only one dose, wilcoxon p=0.56, Mantel p=0.52","trend showing increased survival, but it was not statistically significant"
same,rescue from growth inhibition by exogenous fatty acid,[3],palmitate rescues HL60 cells from C-75
same,reduction in fatty acid synthesis (label incorporation into phospholipids),[4],nearly a three-fold reduction
same,reduction of [U-3H] acetate incorporation into fatty acids in mouse liver,[5]; pilot in vivo metabolic labeling studies,30%
C/C=C/C/C=C/CCC(=O)[C@H]1O[C@H]1C(N)=O [cerulenin],time to regain inception body mass following treatment,[6],≤ 10 days
same,"urinalysis, diabetogenic effect",[6],failed to demonstrate any diabetogenic effect
same,mean weight loss of original body mass,[6]; during the treatment period,25%
same,inhibition with high dose over standard dose,[7]; high dose 6mg/mouse versus standard dose 2mg/mouse,No augmentation of inhibition
same,reduction of OVCAR-3 ascites tumor fatty acid synthesis,[7]; intraperitoneal administration as in Example 3,43%
same,half-life,[8],< 15 min
same,effect on mean hepatic fatty acid synthesis,"[5]; mice with OVCAR-3 ascites tumor, intraperitoneal administration",no effect
same,inhibition of fatty acid synthesis in liver,"[5]; mice without tumor, parallel experiments",~50%
same,Water intake,[9]; [10],not appreciable altered
same,reduction of feces mass,[9]; [10],28%
same,weight relative to original weight,"[9]; 60 mg/kg i.p. each day for 1 week, by day 14",96%
same,average loss of weight,"[9]; 60 mg/kg i.p. each day for 1 week, by day eight",28%
same,Observation of the mice (activity),[9]; during the period of maximal weight loss,normal activity
same,"Liver, microscopically","[9]; necropsy, parallel experiment",unremarkable without necrosis or inflammation
same,"muscle mass, histologically","[9]; necropsy, parallel experiment",no decrease in muscle mass was detected histologically
same,Necropsy: fat deposits,[9]; parallel experiment,markedly decreased subcutaneous fat and abdominal fat deposits
